Where two headings read alike, the source gives them in different places. Bridge positions count the residues as written; N and C are the ends. Square brackets hold non-standard residues; d marks the D form. Peptide text beside a SMILES is read from it. * marks the point of attachment. Ileψ(thiazoline)Cys = CC[C@H](C)[C@H](N)C1=N[C@H](C(=O)*)CS1; dOrn = NCCC[C@@H](N)C(=O)O
Tested on: Entamoeba histolytica
Format: cell-based
Description: E. histolytica isolates representing three distinct zymodemes (I, II or XIV) were derived from a range of geographical locations. The patients from whom the isolates were obtained were either pathogenic (i.e. presented dysentery), or non-pathogenic (i.e., presented a non-dysenteric stage of infection characterized by passing of cysts or trophozoites). The following table identifies the E. histolytica isolates in accordance with the above criteria:
Each isolate was a xenic culture, i.e., it contained, in addition to the E. histolytica amoeba, the normally occurring patient faecal microflora. The cultures were maintained according to the method of Robinson, Trans. Roy. Soc. Trop. Med. Hyg. 62, 285-94, (1968). Bacitracin (70 I.U./mg) and its zinc salt (65 I.U./mg) were obtained from Apothekernes Laboratorium A.S (Oslo, Norway). Following microtitre-assay standardization and pilot testing of the drugs (results not presented), the following assay procedure was established. Bacitracin was screened over the range of 20.0-0.625 mg/ml by doubling dilution. 30 mg/ml bacitracin was also examined. […] The remaining wells were run as controls. An initial stock solution of 75 mg/ml bacitracin was prepared in starch-free Robinson medium (SFRM) . Subsequent to loading the first set of wells, the stock was diluted with SFRM to 50 mg/ml, which was used to prepare the remaining concentrations. […] 100 μl volumes of both drugs were then double-diluted in SFRM to provide 2.5X concentrates of the required final concentrations in the microtitre plates. 50 μl of a 25 mg% starch (BDH) solution (in SFRM) was then added to each well. 16-18 hours before the end of the required 48-hour culture period, the amoeba isolates were passaged to fresh tubes containing starch-free Robinson medium. At the end of the culture period, the amoebae were harvested in a small volume of medium and resuspended in at least 20 volumes SFRM. The suspensions were centrifuged at 1000 rpm for 5 minutes prior to re-suspension in fresh medium and counted in a modified Neubauer chamber. Amoebae were centrifuged as before and the pellet resuspended to a concentration of 2.5×10^4 /ml SFRM. 100 μl aliquots were then pipetted into respective wells to provide duplicate cultures of each isolate for each concentration assayed. The plates were then placed in an anaerobic chamber (HP11, Oxoid) at 37° C. for 24 hours. While this procedure provided sufficient starch for the amoebae, the concentration was such that at 24 hours the plates were easily read and quantitified by direct observation using an inverted microscope. Viability was assessed by the addition of Trypan blue to a final concentration of 0.1%.
Readings from each of the studies were collected and stored until all three experiments were completed in order to reduce any bias in subsequent readings. Minimun inhibitory and minimum lethal concentrations were given in mg/ml. […]

[1] = xenic isolate DOGO, Experiment 1
[2] = xenic isolate DOGO, Experiment 2
[3] = xenic isolate DOGO, Experiment 3
[4] = xenic isolate OMAk, Experiment 1
[5] = xenic isolate OMAk, Experiment 3
[6] = xenic isolate Sh2, Experiment 2
[7] = xenic isolate Sh2, Experiment 3
[8] = xenic isolate T2k, Experiment 1
[9] = xenic isolate T2k, Experiment 2
[10] = xenic isolate T2k, Experiment 3
[11] = xenic isolate URU1, Experiment 1
[12] = xenic isolate URU1, Experiment 2
[13] = xenic isolate URU1, Experiment 3
[14] = xenic isolate URU19, Experiment 1

CC[C@H](C)[C@H](N)C1=N[C@H](C(=O)N[C@@H](CC(C)C)C(=O)N[C@H](CCC(=O)O)C(=O)N[C@H](C(=O)N[C@H]2CCCCNC(=O)[C@H](CC(N)=O)NC(=O)[C@@H](CC(=O)O)NC(=O)[C@H](Cc3cnc[nH]3)NC(=O)[C@@H](Cc3ccccc3)NC(=O)[C@H]([C@@H](C)CC)NC(=O)[C@@H](CCCN)NC2=O)[C@@H](C)CC)CS1 [Bacitracin, reference compound] ({Ileψ(thiazoline)Cys}-L[dE]IK[dOrn]I[dF]H[dD]N; lactam 4-C)
Minimum Lethal Concentration (MLC) (xenic isolate DA, Experiment 2): 30000 µg/mL | Minimum Inhibitory Concentration (MIC) (xenic isolate DA, Experiment 3): 630 µg/mL | Minimum Lethal Concentration (MLC) (xenic isolate DA, Experiment 3): 20000 µg/mL | Minimum Inhibitory Concentration (MIC) [1]: 2500 µg/mL | Minimum Lethal Concentration (MLC) [1]: 30000 µg/mL | Minimum Inhibitory Concentration (MIC) [2]: 2500 µg/mL | Minimum Lethal Concentration (MLC) [2]: 20000 µg/mL | Minimum Inhibitory Concentration (MIC) [3]: 630 µg/mL | Minimum Lethal Concentration (MLC) [3]: 10000 µg/mL | Minimum Inhibitory Concentration (MIC) (xenic isolate GS, Experiment 1): 2500 µg/mL | Minimum Lethal Concentration (MLC) (xenic isolate GS, Experiment 1): 30000 µg/mL | Minimum Inhibitory Concentration (MIC) (xenic isolate GS, Experiment 2): 1250 µg/mL | Minimum Lethal Concentration (MLC) (xenic isolate GS, Experiment 2): 20000 µg/mL | Minimum Inhibitory Concentration (MIC) (xenic isolate GS, Experiment 3): 630 µg/mL | Minimum Lethal Concentration (MLC) (xenic isolate GS, Experiment 3): 30000 µg/mL | Minimum Inhibitory Concentration (MIC) (xenic isolate MS, Experiment 1): 5000 µg/mL | Minimum Lethal Concentration (MLC) (xenic isolate MS, Experiment 1): 30000 µg/mL | Minimum Inhibitory Concentration (MIC) (xenic isolate MS, Experiment 2): 2500 µg/mL | Minimum Lethal Concentration (MLC) (xenic isolate MS, Experiment 2): 20000 µg/mL | Minimum Inhibitory Concentration (MIC) (xenic isolate MS, Experiment 3): 1250 µg/mL | Minimum Lethal Concentration (MLC) (xenic isolate MS, Experiment 3): 20000 µg/mL | Minimum Inhibitory Concentration (MIC) [4]: 2500 µg/mL | Minimum Lethal Concentration (MLC) [4]: 30000 µg/mL | Minimum Inhibitory Concentration (MIC) [5]: 1250 µg/mL | Minimum Lethal Concentration (MLC) [5]: 30000 µg/mL | Minimum Inhibitory Concentration (MIC) (xenic isolate SI, Experiment 1): 2500 µg/mL | Minimum Lethal Concentration (MLC) (xenic isolate SI, Experiment 1): 30000 µg/mL | Minimum Inhibitory Concentration (MIC) (xenic isolate SI, Experiment 3): 2500 µg/mL | Minimum Lethal Concentration (MLC) (xenic isolate SI, Experiment 3): 20000 µg/mL | Minimum Inhibitory Concentration (MIC) [6]: 5000 µg/mL | Minimum Lethal Concentration (MLC) [6]: 20000 µg/mL | Minimum Inhibitory Concentration (MIC) [7]: 2500 µg/mL | Minimum Lethal Concentration (MLC) [7]: 30000 µg/mL | Minimum Inhibitory Concentration (MIC) [8]: 2500 µg/mL | Minimum Lethal Concentration (MLC) [8]: 30000 µg/mL | Minimum Inhibitory Concentration (MIC) [9]: 2500 µg/mL | Minimum Lethal Concentration (MLC) [9]: 30000 µg/mL | Minimum Inhibitory Concentration (MIC) [10]: 630 µg/mL | Minimum Lethal Concentration (MLC) [10]: 30000 µg/mL | Minimum Inhibitory Concentration (MIC) (xenic isolate T4, Experiment 1): 5000 µg/mL | Minimum Lethal Concentration (MLC) (xenic isolate T4, Experiment 1): 30000 µg/mL | Minimum Inhibitory Concentration (MIC) (xenic isolate T4, Experiment 2): 2500 µg/mL | Minimum Lethal Concentration (MLC) (xenic isolate T4, Experiment 2): 30000 µg/mL | Minimum Inhibitory Concentration (MIC) (xenic isolate T4, Experiment 3): 630 µg/mL | Minimum Lethal Concentration (MLC) (xenic isolate T4, Experiment 3): 30000 µg/mL | Minimum Inhibitory Concentration (MIC) (xenic isolate T6, Experiment 1): 2500 µg/mL | Minimum Lethal Concentration (MLC) (xenic isolate T6, Experiment 1): 30000 µg/mL | Minimum Inhibitory Concentration (MIC) (xenic isolate T6, Experiment 2): 2500 µg/mL | Minimum Lethal Concentration (MLC) (xenic isolate T6, Experiment 2): 20000 µg/mL | Minimum Inhibitory Concentration (MIC) (xenic isolate T6, Experiment 3): 2500 µg/mL | Minimum Lethal Concentration (MLC) (xenic isolate T6, Experiment 3): 20000 µg/mL | Minimum Inhibitory Concentration (MIC) [11]: 2500 µg/mL | Minimum Lethal Concentration (MLC) [11]: 30000 µg/mL | Minimum Inhibitory Concentration (MIC) [12]: 2500 µg/mL | Minimum Lethal Concentration (MLC) [12]: 20000 µg/mL | Minimum Inhibitory Concentration (MIC) [13]: 1250 µg/mL | Minimum Lethal Concentration (MLC) [13]: 30000 µg/mL | Minimum Inhibitory Concentration (MIC) [14]: 2500 µg/mL | Minimum Lethal Concentration (MLC) [14]: 30000 µg/mL
